Laboratory results taken from patent US12692254B2, “Benzimidazole inhibitors of PAD enzymes” (BRISTOL-MYERS SQUIBB COMPANY, priority 2018, dated 2026).

Molecular target: human PAD4 (hPAD4) (Homo sapiens, UniProt Q9UM07)
Assay: RFMS human PAD4 functional assay (rapid-fire mass spectrum)
Assay type: biochemical
Settings: 5 nM hPAD4 enzyme, 250 μM BAEE, 50 μM Calcium; 30 min preincubation, 90 min reaction at 37° C.
Method: Compounds of the present invention were assayed as inhibitors of PAD4 using the assay protocol described below.
RFMS tinman PAD4 Functional Assay:
Compounds were solubilized in 100% DMSO to achieve a 10 mM compound concentration. Compound stock solutions were stored at RT. A series of dilutions were prepared in DMSO and mixed 8 times with 20 μl, mixing volume. Final top concentration of compound in the assay is 50 μM. […] 1-90 min enzyme/substrate reaction, 30 min reaction with phenyl glyoxal at 37° C. • Stop solution: 40 μl 5% TCA in ACN
0.13 μL of compound solution was added to 13 μL of 10 nM PAD4 in assay buffer. After 30 min 13 μl of 500 μM of BAEE was added in 25 mM hepes, pH 7.5, 5 mM NaCl, 1 mM DTT, 0.2 mg/ml BS A, 0.01% CHAPS, 50 μM Calcium, 5 μM TPEN was added and the reaction incubated for 90 min at 37° C. The enzymatic reaction was quenched by addition of 15 μl of 6.1N TCA, 100% Final Concentration is 20%, 35 μl of 8.5 mM phenyl glyoxal (final concentration 4 mM) is then added and the reaction is incubated for 30 min at 37° C.
After 30 minutes the plates are spun down to remove all precipitate. The enzyme reaction was quenched with an equal volume of methanol containing internal standard (modified citrulline). Samples were loaded onto the Rapid Fire RF300 system (Agilent) wherein they were first sipped for 1000 ms and then directly loaded to a C18 separations cartridge using a mixture of acetonitrile containing 0.01% formic acid for 3000 ms desalting. The flow rate of the mobile phase was 1.5 ml/min.
The dwell time for each transition was set at 200 ms, and the ESI voltage was used at 5500 with a source temperature of 400° C. Extracted ion peaks for each transition were integrated using the Rapid Fire Integrator software. Peak area of analyte was normalized with internal standard).

human PAD4 (hPAD4), sequence (Q9UM07 whole entry): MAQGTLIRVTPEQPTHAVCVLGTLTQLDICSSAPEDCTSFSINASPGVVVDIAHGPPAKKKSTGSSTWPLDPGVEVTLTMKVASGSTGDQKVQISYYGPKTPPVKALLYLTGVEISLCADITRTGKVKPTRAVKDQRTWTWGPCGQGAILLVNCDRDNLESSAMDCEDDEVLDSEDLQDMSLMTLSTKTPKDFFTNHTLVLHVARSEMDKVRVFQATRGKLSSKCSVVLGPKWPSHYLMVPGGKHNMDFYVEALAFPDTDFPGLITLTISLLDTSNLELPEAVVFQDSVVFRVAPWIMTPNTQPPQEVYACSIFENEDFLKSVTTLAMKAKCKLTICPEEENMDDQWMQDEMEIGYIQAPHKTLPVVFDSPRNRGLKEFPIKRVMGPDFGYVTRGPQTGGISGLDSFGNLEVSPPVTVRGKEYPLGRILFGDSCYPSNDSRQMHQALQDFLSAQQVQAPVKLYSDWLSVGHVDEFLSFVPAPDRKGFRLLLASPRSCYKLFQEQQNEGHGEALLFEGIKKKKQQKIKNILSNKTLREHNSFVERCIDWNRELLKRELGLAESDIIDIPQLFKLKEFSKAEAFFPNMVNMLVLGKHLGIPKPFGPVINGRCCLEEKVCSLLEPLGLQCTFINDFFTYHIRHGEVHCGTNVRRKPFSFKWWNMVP

SMILES	IC50 [nM]
COc1cc(C(=O)N2C[C@H]3CC[C@@H]2[C@@H]3N)cc2nc(-c3cc4ccccc4n3CC3CC3)n(CC3CN(C(=O)c4ccc(F)cc4)C3)c12 [Example 161, (1R,4R,7R)-2-{2-[1-(cyclopropylmethyl)-1H-indol-2-yl]-1-{[1-(4-fluorobenzoyl)azetidin-3-yl]methyl}-7-methoxy-1H-1,3-benzodiazole-5-carbonyl}-2-azabicyclo[2.2.1]heptan-7-amine]	25
COc1cc(C(=O)N2C[C@H]3CC[C@@H]2[C@@H]3N)cc2nc(-c3cc4ccccc4n3CC3CC3)n(C[C@H]3CCN(c4ccnc(C5CC5)n4)C3)c12 [Example 227, (1R,4R,7R)-2-{2-[1-(cyclopropylmethyl)-1H-indo1-2-yl]-1-{[(3S)-1-(2-cyclopropylpyrimidin-4-yl)pyrrolidin-3-yl]methyl}-7-methoxy-1H-1,3-benzodiazole-5-carbonyl}-2-azabicyclo[2.2.1]heptan-7-amine]	41
COc1cc(C(=O)N2C[C@H](N)C[C@@H](F)C2)cc2nc(-c3cc4cccnc4n3CC3CC3)n(Cc3cnn(-c4ncc(F)cc4F)c3)c12 [Example 393, (3R,5R)-1-{2-[1-(cyclopropylmethyl)-1H-pyrrolo[2,3-b]pyridin-2-yl]-1-{[1-(3,5-difluoropyridin-2-yl)-1H-pyrazol-4-yl]methyl}-7-methoxy-1H-1,3-benzodiazole-5-carbonyl}-5-fluoropiperidin-3-amine]	49
COc1cc(C(=O)N2C[C@H](N)C[C@@H](F)C2)cc2nc(-c3cc4ccccc4n3CC3CC3)n(Cc3cn[nH]c3)c12 [Example 266, (3R,5R)-1-{2-[1-(cyclopropylmethyl)-1H-indol-2-yl]-7-methoxy-1-[(1H-pyrazol-4-yl)methyl]-1H-1,3-benzodiazole-5-carbonyl}-5-fluoropiperidin-3-amine]	82
COc1cc(C(=O)N2CC3CCC2[C@@H]3N)cc2nc(-c3cc4cccnc4n3CC3CC3)n(CC3CN(C(=O)Nc4ccccc4)C3)c12 (stereo partly drawn) [Example 455, 3-({5-[(7R)-7-amino-2-azabicyclo[2.2.1]heptane-2-carbonyl]-2-[1-(cyclopropylmethyl)-1H-pyrrolo[2,3-b]pyridin-2-yl]-7-methoxy-1H-1,3-benzodiazol-1-yl}methyl)-N-phenylazetidine-1-carboxamide]	59
Cn1cc(Cn2c(-c3cc4cccnc4n3CC3CC3)nc3cc(C(=O)N4CC5CCC4[C@@H]5N)cc(F)c32)cn1 (stereo partly drawn) [Example 491, (7R)-2-{2-[1-(cyclopropylmethyl)-1H-pyrrolo[2,3-b]pyridin-2-yl]-7-fluoro-1-[(1-methyl-1H-pyrazol-4-yl)methyl]-1H-1,3-benzodiazole-5-carbonyl}-2-azabicyclo[2.2.1]heptan-7-amine]	57
COc1cc(C(=O)N2C[C@H](N)C[C@@H](F)C2)cc2nc(-c3cc4ccccc4n3CC3CC3)n(CC3CN(C(=O)c4cc(C#N)ccc4F)C3)c12 [Example 152, 3-[3-({5-[(3R,5R)-3-amino-5-fluoropiperidine-1-carbonyl]-2-[1-(cyclopropylmethyl)-1H-indol-2-yl]-7-methoxy-1H-1,3-benzodiazol-1-yl}methyl)azetidine-1-carbonyl]-4-fluorobenzonitrile]	21
COc1cc(C(=O)N2CC3CCC2[C@@H]3N)cc2nc(-c3cc4ccccc4n3CC3CC3)n(CC3CN(C(=O)c4ccccc4C(=O)O)C3)c12 (stereo partly drawn) [Example 179, 2-[3-({5-[(1R,4R,7R)-7-amino-2-azabicyclo[2.2.1]heptane-2-carobnyl]-2-[1-(cyclopropylmethyl)-1H-indol-2-yl]-7-methoxy-1H-1,3-benzodiazol-1-yl}methyl)azetidine-1-carbonyl]benzoic acid]	93
COc1cc(C(=O)N2CCC[C@@H](N)C2)cc2nc(-c3cc4cccnc4n3CC3CC3)n(C3CN(S(C)(=O)=O)C3)c12 [Example 341, (3R)-1-{2-[1-(cyclopropylmethyl)-1H-pyrrolo[2,3-b]pyridin-2-yl]-1-(1-methanesulfonylazetidin-3-yl)-7-methoxy-IH-1,3-benzodiazole-5-carbonyl}piperidin-3-amine]	2980
COc1cc(C(=O)N2C[C@H]3CC[C@@H]2[C@@H]3N)cc2nc(-c3cc4cccnc4n3CC3CC3)n(C3CN(C(C)=O)C3)c12 [Example 191, 1-(3-{5-[(1R,4R,7R)-7-amino-2-azabicyclo[2.2.1]heptane-2-carbonyl]-2-[1-(cyclopropylmethyl)-1H-pyrrolo[2,3-b]pyridin-2-yl]-7-methoxy-1H-1,3-benzodiazol-1-yl}azetidin-1-yl)ethan-1-one]	884
COc1cc(C(=O)N2C[C@H]3CC[C@@H]2[C@@H]3N)cc2nc(-c3cc4cccnc4n3CC3CC3)n(CC3CN(c4cc(C#N)cnc4C#N)C3)c12 [Example 12, 3-[3-({5-[(1R,4R,7R)-7-amino-2-azabicyclo[2.2.1]heptane-2-carbonyl]-2-[1-(cyclopropylmethyl)-1H-pyrrolo[2,3-b]pyridin-2-yl]-7-methoxy-1H-1,3-benzodiazol-1-yl}methyl)azetidin-1-yl]pyridine-2,5-dicarbonitrile]	38
COc1cc(C(=O)N2C[C@H]3CC[C@@H]2[C@@H]3N)cc2nc(-c3cc4cccnc4n3CC3CC3)n(CC3CN(C(=O)C4CC4)C3)c12 [Example 123, (1R,4R,7R)-2-{1-[(1-cyclopropanecarbonylazetidin-3-yl)methyl]-2-[1-(cyclopropylmethyl)-1H-pyrrolo[2,3-b]pyridin-2-yl]-7-methoxy-1H-1,3-benzodiazole-5-carbonyl}-2-azabicyclo[2.2.1]heptan-7-amine]	100
COc1cc(C(=O)N2C[C@H]3CC[C@@H]2[C@@H]3N)cc2nc(-c3cc4ccccc4n3CC3CC3)n(CC3CN(C(=O)c4cccc(C#N)c4)C3)c12 [Example 141, 3-[3-({5-[(1R,4R,7R)-7-amino-2-azabicyclo[2.2.1]heptane-2-carbonyl]-2-[1-(cyclopropylmethyl)-1H-indol-2-yl]-7-methoxy-1H-1,3-benzodiazol-1-yl}methyl)azetidine-1-carbonyl]benzonitrile]	14
COc1cc(C(=O)N2CC3CCC2[C@@H]3N)cc2nc(-c3cc4ccccc4n3CC3CC3)n(Cc3cnn(-c4cc(Cl)ccn4)c3)c12 (stereo partly drawn) [Example 392, (7R)-2-(1-{[1-(4-chloropyridin-2-yl)-1H-pyrazol-4-yl]methyl}-2-[1-(cyclopropylmethyl)-1H-indol-2-yl]-7-methoxy-1H-1,3-benzodiazole-5-carbonyl)-2-azabicyclo[2.2.1]heptan-7-amine]	48
N#Cc1ccc(C(=O)N2CC(Cn3c(-c4cc5cccnc5n4CC4CC4)nc4cc(C(=O)N5C[C@H]6CC[C@@H]5[C@@H]6N)cc(Cl)c43)C2)cc1 [Example 96, 4-[3-({5-[(1R,4R,7R)-7-amino-2-azabicyclo[2.2.1]heptane-2-carbonyl]-7-chloro-2-[1-(cyclopropylmethyl)-1H-pyrrolo[2,3-b]pyridin-2-yl]-1H-1,3-benzodiazol-1-yl}methyl)azetidine-1-carbonyl]benzonitrile]	83
COc1cc(C(=O)N2CC3CCC2[C@@H]3N)cc2nc(-c3cc4cccnc4n3CC3CC3)n(CCNC(C)=O)c12 (stereo partly drawn) [Example 289, N-(2-{5-[(1R,4R,7R)-7-amino-2-azabicyclo[2.2.1]heptane-2-carhonyl]-2-[1-(cyclopropylmethyl)-1H-pyrrolo[2,3-b]pyridin-2-yl]-7-methoxy-1H-1,3-benzodiazol-1-yl}ethyl)acetamide]	1290
CCOC(=O)N1CC(Cn2c(-c3cc4cccnc4n3CC3CC3)nc3cc(C(=O)N4C[C@H]5CC[C@@H]4[C@@H]5N)cc(OC)c32)C1 [Example 130, ethyl 3-({5-[(1R,4R,7R)-7-amino-2-azabicyclo[2.2.1]heptane-2-carbonyl]-2-[1-(cyclopropylmethyl)-1H-pyrrolo[2,3-b]pyridin-2-yl]-7-methoxy-1H-1,3-benzodiazol-1-yl}methyl)azetidine-1-carboxylate]	128
COc1cc(C(=O)N2CC3CCC2[C@@H]3N)cc2nc(-c3cc4ccccc4n3CC3CC3)n(CC3(F)CN(C(=O)c4ccccc4)C3)c12 (stereo partly drawn) [Example 432, (7R)-2-{1-[(1-benzoyl-3-fluoroazetidin-3-yl)methyl]-2-[1-(cyclopropylmethyl)-1H-indol-2-yl]-7-methoxy-1H-1,3-benzodiazole-5-carbonyl}-2-azabicyclo[2.2.1]heptan-7-amine]	31
COc1nccc(N2CCC(Cn3c(-c4cc5cccnc5n4CC4CC4)nc4cc(C(=O)N5CC6CCC5[C@@H]6N)cc(OC)c43)CC2)n1 (stereo partly drawn) [Example 222, (1R.,4R,7R)-2-{2-[1-(cyclopropylmethyl)-1H-pyrrolo[2,3-b]pyridin-2-yl]-7-methoxy-1-{[1-(2-methoxypyrimidin-4-yl)piperidin-4-yl]methyl}-1H-1,3-benzodiazole-5-carbonyl}-2-azabicyclo[2.2.1]heptan-7-amine]	166
